From patent US11254663B2 (BRISTOL-MYERS SQUIBB COMPANY, priority 2019, dated 2022) come the findings set out here.

The target of this assay is FXR (Homo sapiens (Human), UniProt Q96RI1). Put plainly: FXR EC50 (FXR agonist potency reported with each Example). Format: cell-based.
Chain of FXR (Q96RI1 262-486): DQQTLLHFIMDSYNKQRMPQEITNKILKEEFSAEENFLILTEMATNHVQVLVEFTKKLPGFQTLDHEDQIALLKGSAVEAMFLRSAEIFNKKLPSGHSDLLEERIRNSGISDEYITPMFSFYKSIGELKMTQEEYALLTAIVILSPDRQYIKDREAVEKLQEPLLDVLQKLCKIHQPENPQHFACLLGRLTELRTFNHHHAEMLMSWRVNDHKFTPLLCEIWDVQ
In the case of `COCc1coc(-c2cccc(N(CC34CCC(c5nc(C6CC6)no5)(CC3)CC4)C(=O)C3CC(F)(F)C3)c2)n1` [Example 84, N-((4-(3-cyclopropyl-1,2,4-oxadiazol-5-yl)bicyclo[2.2.2]octan-1-yl)methyl)-3,3-difluoro-N-(3-(4-(methoxymethyl)oxazol-2-yl)phenyl)cyclobutane-1-carboxamide], a half-maximal response (EC50) required 948 nM.

On to `COCc1coc(-c2cccc(N(CC34CCC(c5nc(C6CC6)no5)(CC3)CC4)C(=O)C34CC(F)(C3)C4)c2)n1` [Example 85, N-((4-(3-cyclopropyl-1,2,4-oxadiazol-5-yl)bicyclo[2.2.2]octan-1-yl)methyl)-3-fluoro-N-(3-(4-(methoxymethyl)oxazol-2-yl)phenyl)bicyclo[1.1.1]pentane-1-carboxamide], for which the midpoint of the response, the EC50, lay at 137 nM.

Consider `O=C(N(CC12CCC(c3nc(C4CC4)no3)(CC1)CC2)c1cccc(-c2nnc(C3CC3)o2)c1)C12CC(F)(C1)C2` [Example 86, N-((4-(3-cyclopropyl-1,2,4-oxadiazol-5-yl)bicyclo[2.2.2]octan-1-yl)methyl)-N-(3-(5-cyclopropyl-1,3,4-oxadiazol-2-yl)phenyl)-3-fluorobicyclo[1.1.1]pentane-1-carboxamide], for which the response was half-maximal at 123 nM (EC50). The result for `O=C(C1CC(F)(F)C1)N(CC12CCC(c3nc(C4CC4)no3)(CC1)CC2)c1cccc(-c2nnc(C3CC3)o2)c1` [Example 87, N-((4-(3-cyclopropyl-1,2,4-oxadiazol-5-yl)bicyclo[2.2.2]octan-1-yl)methyl)-N-(3-(5-cyclopropyl-1,3,4-oxadiazol-2-yl)phenyl)-3,3-difluorocyclobutane-1-carboxamide] reads 712 nM. The figure for `CC(C)(C)c1noc(C23CCC(CN(C(=O)C45CC(F)(C4)C5)c4cccc(-c5nc(C6CC6)no5)c4)(CC2)CC3)n1` [Example 88, N-((4-(3-(tert-butyl)-1,2,4-oxadiazol-5-yl)bicyclo[2.2.2]octan-1-yl)methyl)-N-(3-(3-cyclopropyl-1,2,4-oxadiazol-5-yl)phenyl)-3-fluorobicyclo[1.1.1]pentane-1-carboxamide] is 86 nM; for `CC(C)c1noc(C23CCC(CN(C(=O)C45CC(F)(C4)C5)c4cccc(-c5nc(C6CC6)no5)c4)(CC2)CC3)n1` [Example 89, N-(3-(3-cyclopropyl-1,2,4-oxadiazol-5-yl)phenyl)-3-fluoro-N-((4-(3-isopropyl-1,2,4-oxadiazol-5-yl)bicyclo[2.2.2]octan-1-yl)methyl)bicyclo[1.1.1]pentane-1-carboxamide] it is 47 nM.

On to `O=C(N(CC12CCC(c3nc(C4CCOCC4)no3)(CC1)CC2)c1cccc(-c2nc(C3CC3)no2)c1)C12CC(F)(C1)C2` [Example 90, N-(3-(3-cyclopropyl-1,2,4-oxadiazol-5-yl)phenyl)-3-fluoro-N-((4-(3-(tetrahydro-2H-pyran-4-yl)-1,2,4-oxadiazol-5-yl)bicyclo[2.2.2]octan-1-yl)methyl)bicyclo[1.1.1]pentane-1-carboxamide], for which the EC50 (commonly the midpoint of the concentration-response curve) stood at 121 nM. The figure for `O=C(N1CCCC1)N(CC12CCC(c3nc(C4CC4)no3)(CC1)CC2)c1cccc(-c2nc(C3CC3)no2)c1` [Example 91, N-((4-(3-cyclopropyl-1,2,4-oxadiazol-5-yl)bicyclo[2.2.2]octan-1-yl)methyl)-N-(3-(3-cyclopropyl-1,2,4-oxadiazol-5-yl)phenyl)pyrrolidine-1-carboxamide] is 322 nM.

With `CC(C)(C)CNC(=O)N(CC12CCC(c3nc(C4CC4)no3)(CC1)CC2)c1cccc(-c2nc(C3CC3)no2)c1` [Example 92, 1-((4-(3-cyclopropyl-1,2,4-oxadiazol-5-yl)bicyclo[2.2.2]octan-1-yl)methyl)-1-(3-(3-cyclopropyl-1,2,4-oxadiazol-5-yl)phenyl)-3-neopentylurea], the EC50 turned out to be 420 nM.

Take `CN(C)[C@H]1CCN(C(=O)N(CC23CCC(c4nc(C5CC5)no4)(CC2)CC3)c2cccc(-c3nc(C4CC4)no3)c2)C1` [Example 93, (S)—N-((4-(3-cyclopropyl-1,2,4-oxadiazol-5-yl)bicyclo[2.2.2]octan-1-yl)methyl)-N-(3-(3-cyclopropyl-1,2,4-oxadiazol-5-yl)phenyl)-3-(dimethylamino)pyrrolidine-1-carboxamide]: the midpoint of the response, the EC50, lay at 2690 nM. In turn, `CC1(NC(=O)N(CC23CCC(c4nc(C5CC5)no4)(CC2)CC3)c2cccc(-c3nc(C4CC4)no3)c2)CC1` [Example 94, 1-((4-(3-cyclopropyl-1,2,4-oxadiazol-5-yl)bicyclo[2.2.2]octan-1-yl)methyl)-1-(3-(3-cyclopropyl-1,2,4-oxadiazol-5-yl)phenyl)-3-(1-methylcyclopropyl)urea] showed an EC50 of 265 nM. The result for `CCNC(=O)N(CC12CCC(c3nc(C4CC4)no3)(CC1)CC2)c1cccc(-c2nc(C3CC3)no2)c1` [Example 95, 1-((4-(3-cyclopropyl-1,2,4-oxadiazol-5-yl)bicyclo[2.2.2]octan-1-yl)methyl)-1-(3-(3-cyclopropyl-1,2,4-oxadiazol-5-yl)phenyl)-3-ethylurea] reads 590 nM.

The molecule `COc1ccc(NC(=O)N(CC23CCC(c4nc(C5CC5)no4)(CC2)CC3)c2cccc(-c3nc(C4CC4)no3)c2)cc1` [Example 96, 1-((4-(3-cyclopropyl-1,2,4-oxadiazol-5-yl)bicyclo[2.2.2]octan-1-yl)methyl)-1-(3-(3-cyclopropyl-1,2,4-oxadiazol-5-yl)phenyl)-3-(4-methoxyphenyl)urea] came in with an EC50 of 647 nM.

Take `O=C(N(CC12CCC(c3nc(C4CC4)cs3)(CC1)CC2)c1cccc(-c2cnc(C3CC3)o2)c1)C12CC(F)(C1)C2` [Example 97, N-(3-(2-cyclopropyloxazol-5-yl)phenyl)-N-((4-(4-cyclopropylthiazol-2-yl)bicyclo[2.2.2]octan-1-yl)methyl)-3-fluorobicyclo[1.1.1]pentane-1-carboxamide]: the response was half-maximal at 70 nM (EC50). The result for `O=C(N(CC12CCC(c3nc(C4CC4)cs3)(CC1)CC2)c1cccc(-c2nc(C3CC3)no2)c1)C12CC(F)(C1)C2` [Example 100, N-(3-(3-cyclopropyl-1,2,4-oxadiazol-5-yl)phenyl)-N-((4-(4-cyclopropylthiazol-2-yl)bicyclo[2.2.2]octan-1-yl)methyl)-3-fluorobicyclo[1.1.1]pentane-1-carboxamide] reads 164 nM; that for `O=C(C1CC(F)(F)C1)N(CC12CCC(c3nc(C4CC4)cs3)(CC1)CC2)c1cccc(-c2nc(C3CC3)no2)c1` [Example 101, N-(3-(3-cyclopropyl-1,2,4-oxadiazol-5-yl)phenyl)-N-((4-(4-cyclopropylthiazol-2-yl)bicyclo[2.2.2]octan-1-yl)methyl)-3,3-difluorocyclobutane-1-carboxamide], 635 nM; that for `O=C(N(CC12CCC(c3nc(C4CC4)no3)(CC1)CC2)c1cccc(-c2noc(C34CC(F)(C3)C4)n2)c1)C12CC(F)(C1)C2` [Example 102, N-((4-(3-cyclopropyl-1,2,4-oxadiazol-5-yl)bicyclo[2.2.2]octan-1-yl)methyl)-3-fluoro-N-(3-(5-(3-fluorobicyclo[1.1.1]pentan-1-yl)-1,2,4-oxadiazol-3-yl)phenyl)bicyclo[1.1.1]pentane-1-carboxamide], 1040 nM. In turn, `O=C(N(CC12CCC(c3nc(C4CC4)no3)(CC1)CC2)c1cccc(-c2noc(C3CC(F)(F)C3)n2)c1)C12CC(F)(C1)C2` [Example 103, N-((4-(3-cyclopropyl-1,2,4-oxadiazol-5-yl)bicyclo[2.2.2]octan-1-yl)methyl)-N-(3-(5-(3,3-difluorocyclobutyl)-1,2,4-oxadiazol-3-yl)phenyl)-3-fluorobicyclo[1.1.1]pentane-1-carboxamide] gave an EC50 of 227 nM. The figure for `O=C(N(CC12CCC(c3nc(C4CC4)no3)(CC1)CC2)c1cccc(-c2noc(C3CC3)n2)c1)C12CC(F)(C1)C2` [Example 104, N-(3-(5-cyclopropyl-1,2,4-oxadiazol-3-yl)phenyl)-N-((4-(3-cyclopropyl-1,2,4-oxadiazol-5-yl)bicyclo[2.2.2]octan-1-yl)methyl)-3-fluorobicyclo[1.1.1]pentane-1-carboxamide] is 60 nM; for `O=C(N(CC12CCC(c3nc(C4CC4)no3)(CC1)CC2)c1cccc(-c2noc(C(F)F)n2)c1)C12CC(F)(C1)C2` [Example 105, N-((4-(3-cyclopropyl-1,2,4-oxadiazol-5-yl)bicyclo[2.2.2]octan-1-yl)methyl)-N-(3-(5-(difluoromethyl)-1,2,4-oxadiazol-3-yl)phenyl)-3-fluorobicyclo[1.1.1]pentane-1-carboxamide] it is 57 nM.

As to `CC1(c2nc(-c3cccc(N(CC45CCC(c6nc(C7CC7)no6)(CC4)CC5)C(=O)C45CC(F)(C4)C5)c3)no2)CC1` [Example 106, N-((4-(3-cyclopropyl-1,2,4-oxadiazol-5-yl)bicyclo[2.2.2]octan-1-yl)methyl)-3-fluoro-N-(3-(5-(1-methylcyclopropyl)-1,2,4-oxadiazol-3-yl)phenyl)bicyclo[1.1.1]pentane-1-carboxamide], the EC50 stood at 58 nM. The figure for `CC(C)(C)c1nc(-c2cccc(N(CC34CCC(c5nc(C6CC6)no5)(CC3)CC4)C(=O)C34CC(F)(C3)C4)c2)no1` [Example 107, N-(3-(5-(tert-butyl)-1,2,4-oxadiazol-3-yl)phenyl)-N-((4-(3-cyclopropyl-1,2,4-oxadiazol-5-yl)bicyclo[2.2.2]octan-1-yl)methyl)-3-fluorobicyclo[1.1.1]pentane-1-carboxamide] is 18 nM; for `O=C(N(CC12CCC(c3nc(C4CC4)no3)(CC1)CC2)c1cccc(-c2noc(C(F)(F)F)n2)c1)C12CC(F)(C1)C2` [Example 108, N-((4-(3-cyclopropyl-1,2,4-oxadiazol-5-yl)bicyclo[2.2.2]octan-1-yl)methyl)-3-fluoro-N-(3-(5-(trifluoromethyl)-1,2,4-oxadiazol-3-yl)phenyl)bicyclo[1.1.1]pentane-1-carboxamide] it is 144 nM; for `CC(C)c1nc(-c2cccc(N(CC34CCC(c5nc(C6CC6)no5)(CC3)CC4)C(=O)C34CC(F)(C3)C4)c2)no1` [Example 109, N-((4-(3-cyclopropyl-1,2,4-oxadiazol-5-yl)bicyclo[2.2.2]octan-1-yl)methyl)-3-fluoro-N-(3-(5-isopropyl-1,2,4-oxadiazol-3-yl)phenyl)bicyclo[1.1.1]pentane-1-carboxamide] it is 55 nM.
